Assay results as given in PMC4822137, “Proteasomes generate spliced epitopes by two different mechanisms and as efficiently as non-spliced epitopes” (Scientific Reports, 2016).

Tests used:
[1] = tested on: CD8+ T cells from a HLA-A*03:01+ healthy donor; assay: frequency of specific CD8+ T cells in micro-culture well #136; format: cell-based, human; settings: after two rounds of stimulation with DC preloaded with 50 µM peptide; CD8/IFN-γ flow cytometry
Description: Cell cultures. Cells were checked for mycoplasma contamination. LCLs are human B lymphocytes immortalized with Epstein Barr virus. T2 cell line is a human T cell leukemia/B cell line hybrid defective in TAP1/TAP2 (transporter associated with antigen […]) and β1i/β5i subunits. T2 cell line and erythrocytes contain only s-proteasomes, whereas spleen and LCLs posses proteasomes carrying mainly immuno-subunits 5,6. HeLa cells were cultivated in Iscove medium supplemented with 10% FCS, 1% L-glutamine and 1% penicillin (Biochrom). The HeLa 33/2 cell line constitutively expresses the three β5i, β1i and β2i immuno-subunits. It was maintained in Iscove medium supplemented with 10% FCS, 1% L-glutamine, 1% of a combination of penicillin and streptomycin as well as 2 µg/ml puromycin and 300 µg/ml hygromycin (PAA Laboratories).
Ma-Mel63a were established from tumor metastasis after informed consent of the patient. […] In this assay TNF-α release was measured by lysis of WEHI-13 cells. The frequency of the specific CD8+ T cells present in the responsive micro-cultures was determined by intracellular double staining for CD8 and IFN-γ using flow cytometry. […]
were analyzed for their capacity to secrete TNF-α upon re-stimulation with 50 µM of the same peptide in […]
a 6 hr assay. […] TNF-α was measured […]

[2] = target: HLA-A*03:01 complex (Homo sapiens, UniProt P04439); assay: HLA-A*03:01-peptide binding, mature dendritic cells; settings: data not shown

Substance: [QLYPEW][RTK] [gp100^mel47–52/40–42]
- specific CD8+ T cells in well #136 [1]: ~ 10%
- binding to HLA-A*03:01, mature dendritic cells [2]: confirmed the predicted binding
